Literature values in US20130183261A1, “METHOD AND COMPOSITION FOR DELIVERING ACTIVE INGREDIENT INTO AIR, AND USE THEREOF” (priority 2010, published 2013).

Settings: at 25° C.; neat solvent

- Viscosity: 11.4 mPa·s
SMILES: CCCOC(C)COC(C)CO (stereo not shown) [DPnP, dipropylene glycol n-propyl ether]
